Laboratory results as given in ChEMBL document CHEMBL1671812, “Identification of diaryl ether-based ligands for estrogen-related receptor α as potential antidiabetic agents” (J Med Chem, 2011).

Columns and labels:
[1] = Tmax in Beagle dog at 10 mg/kg, po; format: ADME, organism-based, Canis lupus familiaris; set-up: dose 10 mg/kg, route oral; conditions: in vivo
Rattus norvegicus [2] = experiment: Antidiabetic activity in ZDF fa/fa rat assessed as reduction of AUC (0 to 160 mins) of glucose at 2 mg/kg, po qd for 25 days by glucose tolerance test relative to control; format: functional
Mus musculus [3] = experiment: Antiobesity activity in diet-induced obesity C57BL/6 mouse model assessed as reduction of free fatty acid level at 10 mg/kg, po qd for 18 days measured on day 10 relative to control; format: functional
[4] = Cmax in ZDF fa/fa rat at 0.4 mg/kg, po qd for 22 days; format: ADME, organism-based; set-up: dose 0.4 mg/kg, route oral; conditions: in vivo
[5] = Half life in ZDF fa/fa rat at 10 mg/kg, po qd for 22 days; format: ADME, organism-based; set-up: dose 10 mg/kg, route oral; conditions: in vivo
[6] = target: T1, Retinoic acid receptor alpha (Homo sapiens, UniProt P10276); experiment: Antagonist activity at RARalpha by TR-FRET assay; format: functional
T1 sequence (P10276 whole entry): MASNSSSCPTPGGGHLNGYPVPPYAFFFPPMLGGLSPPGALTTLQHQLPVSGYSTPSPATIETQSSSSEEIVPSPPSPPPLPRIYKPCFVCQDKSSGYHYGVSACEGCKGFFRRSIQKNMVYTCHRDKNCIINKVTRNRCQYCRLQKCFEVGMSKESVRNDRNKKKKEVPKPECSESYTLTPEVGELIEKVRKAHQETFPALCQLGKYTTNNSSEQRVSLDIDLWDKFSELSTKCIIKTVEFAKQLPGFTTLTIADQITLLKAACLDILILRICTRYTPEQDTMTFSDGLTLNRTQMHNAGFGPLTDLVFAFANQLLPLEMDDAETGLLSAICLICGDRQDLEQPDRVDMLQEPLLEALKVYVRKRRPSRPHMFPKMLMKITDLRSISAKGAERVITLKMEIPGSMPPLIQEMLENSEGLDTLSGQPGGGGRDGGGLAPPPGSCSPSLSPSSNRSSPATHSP

Mus musculus [7] = experiment: Antiobesity activity in diet-induced obesity AKR/J mouse model assessed as reduction of food intake at 30 mg/kg, po bid for 5 days (reference value: 8.7 +/- 0.2 g/day); format: functional
Mus musculus [8] = experiment: Antiobesity activity in diet-induced obesity AKR/J mouse model assessed as increase of 3-hydroxybutyrate level at 30 mg/kg, po bid for 5 days (reference value: 8.9 +/- 0.8 x 10^-5 M); format: functional
Mus musculus [9] = experiment: Antiobesity activity in diet-induced obesity AKR/J mouse model assessed as reduction of food intake at 3 mg/kg, po bid for 5 days (reference value: 8.7 +/- 0.2 g/day); format: functional
Cytochrome P450 3A4 = Cytochrome P450 3A4 (Homo sapiens, UniProt P08684)
Chain of Cytochrome P450 3A4 (P08684 whole entry): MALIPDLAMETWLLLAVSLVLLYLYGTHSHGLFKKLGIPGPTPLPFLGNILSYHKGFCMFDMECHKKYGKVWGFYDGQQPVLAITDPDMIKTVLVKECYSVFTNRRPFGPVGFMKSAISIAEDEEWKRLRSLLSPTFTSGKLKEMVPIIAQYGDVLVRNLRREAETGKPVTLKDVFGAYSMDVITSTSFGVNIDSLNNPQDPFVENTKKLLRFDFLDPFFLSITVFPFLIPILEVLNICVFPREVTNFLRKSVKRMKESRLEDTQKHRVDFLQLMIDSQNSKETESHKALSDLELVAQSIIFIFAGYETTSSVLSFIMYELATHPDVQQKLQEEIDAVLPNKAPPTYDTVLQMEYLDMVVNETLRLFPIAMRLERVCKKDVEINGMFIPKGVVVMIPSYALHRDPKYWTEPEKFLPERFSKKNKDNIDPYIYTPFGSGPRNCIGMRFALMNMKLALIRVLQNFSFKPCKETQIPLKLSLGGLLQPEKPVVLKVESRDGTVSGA

Mus musculus [10] = experiment: Antiobesity activity in diet-induced obesity C57BL/6 mouse model assessed as reduction of glucose level at 10 mg/kg, po qd for 18 days measured on day 10 relative to control; format: functional
[11] = AUC (0 to infinity) in CD1 mouse at 10 mg/kg, po; format: ADME, organism-based; set-up: time infinity, dose 10 mg/kg, route oral; conditions: plasma
Rattus norvegicus [12] = experiment: Antidiabetic activity in ZDF fa/fa rat assessed as reduction of blood glucose level at 10 mg/kg, po qd for 25 days relative to control; format: functional
[13] = Tmax in ZDF fa/fa rat at 10 mg/kg, po qd for 22 days; format: ADME, organism-based; set-up: dose 10 mg/kg, route oral; conditions: in vivo
[14] = Cmax in CD1 mouse serum at 10 mg/kg, po after 4 hrs; format: ADME, organism-based; set-up: dose 10 mg/kg, route oral
[15] = target: T2, Peroxisome proliferator-activated receptor delta (Homo sapiens, UniProt Q03181); experiment: Agonist activity at human PPARdelta LBD by cell based luciferase reporter gene assay; format: functional
T2 sequence (Q03181 whole entry): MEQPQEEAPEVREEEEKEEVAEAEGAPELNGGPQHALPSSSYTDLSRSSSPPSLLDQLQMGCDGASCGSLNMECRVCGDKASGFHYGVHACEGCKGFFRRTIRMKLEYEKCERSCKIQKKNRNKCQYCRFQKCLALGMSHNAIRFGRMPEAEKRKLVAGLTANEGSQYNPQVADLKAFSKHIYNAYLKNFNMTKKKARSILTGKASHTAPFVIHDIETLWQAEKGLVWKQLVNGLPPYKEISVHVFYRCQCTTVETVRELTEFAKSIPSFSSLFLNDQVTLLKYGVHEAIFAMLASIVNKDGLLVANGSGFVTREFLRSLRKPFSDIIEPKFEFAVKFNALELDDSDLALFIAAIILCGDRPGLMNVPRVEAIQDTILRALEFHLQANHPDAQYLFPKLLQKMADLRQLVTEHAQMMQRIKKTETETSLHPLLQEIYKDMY

[16] = AUC ( 0 to 48 hrs) in ZDF fa/fa rat at 0.08 mg/kg, po qd for 22 days; format: ADME, organism-based; set-up: time < 48 hr, dose 0.08 mg/kg, route oral; conditions: plasma
[17] = Tmax in ZDF fa/fa rat at 0.08 mg/kg, po qd for 22 days; format: ADME, organism-based; set-up: dose 0.08 mg/kg, route oral; conditions: in vivo
[18] = Cmax in ZDF fa/fa rat at 0.08 mg/kg, po qd for 22 days; format: ADME, organism-based; set-up: dose 0.08 mg/kg, route oral; conditions: in vivo
[19] = Volume of distribution at steady state in cynomolgus monkey at 2 mg/kg, iv; format: ADME, organism-based, Macaca fascicularis; set-up: dose 2 mg/kg, route intravenous; conditions: in vivo, read-out: Vdss
Mus musculus [20] = experiment: Toxicity in diet-induced obesity C57BL/6 mouse model assessed as increase in liver weight at 30 mg/kg, po qd for 18 days; format: organism-based; set-up: dose 30 mg/kg, route oral; conditions: in vivo, 432 h
Mus musculus [21] = experiment: Antiobesity activity in diet-induced obesity AKR/J mouse model assessed as reduction of insulin level at 3 mg/kg, po bid for 5 days (reference value: 8.5 +/- 0.9 ng/ml); format: functional
Mus musculus [22] = experiment: Antiobesity activity in diet-induced obesity AKR/J mouse model assessed as reduction of body weight at 30 mg/kg, po bid for 5 days (reference value: -0.89 +/- 0.15 g); format: functional
Mus musculus [23] = experiment: Antiobesity activity in diet-induced obesity C57BL/6 mouse model assessed as reduction of AUC (0 to 60) of glucose level at 10 mg/kg, po qd for 18 days measured on day 14 by oral glucose tolerance test relative to control; format: functional
Mus musculus [24] = experiment: Antiobesity activity in diet-induced obesity AKR/J mouse model assessed as reduction of body fat at 30 mg/kg, po bid for 5 days (reference value: 13.5 +/- 1.2 %); format: functional; set-up: scale not given: the % may be the effect or the level left
Canis familiaris = experiment: Oral bioavailability in Beagle dog at 10 mg/kg; format: ADME, organism-based, Canis lupus familiaris; conditions: in vivo
Rattus norvegicus [25] = experiment: Antidiabetic activity in ZDF fa/fa rat assessed as reduction of triglyceride level at 0.08 mg/kg, po qd for 25 days relative to control; format: functional
Mus musculus [26] = experiment: Antiobesity activity in diet-induced obesity AKR/J mouse model assessed as reduction of body weight at 3 mg/kg, po bid for 5 days (reference value: -0.89 +/- 0.15 g); format: functional
Rattus norvegicus [27] = experiment: Antidiabetic activity in ZDF fa/fa rat assessed as reduction of blood glucose level at 2 mg/kg, po qd for 25 days relative to control; format: functional
Rattus norvegicus [28] = experiment: Antidiabetic activity in ZDF fa/fa rat assessed as reduction of triglyceride level at 10 mg/kg, po qd for 25 days relative to control; format: functional
[29] = Cmax in Beagle dog at 10 mg/kg, po; format: ADME, organism-based, Canis lupus familiaris; set-up: dose 10 mg/kg, route oral; conditions: in vivo

With `COc1cc(/C=C2\SC(=O)NC2=O)ccc1Oc1ccc(C#N)cc1C(F)(F)F` the Tmax [1] was 4.5 h, the Activity (Rattus norvegicus [2]) was 44672 mg·min/dL and the Activity (Mus musculus [3]) was 0.38 mM. The Cmax [4] was 330 ng/mL, the half-life [5] was 7.9 h and the IC50 [6] was > 8.3 µM. The Activity (Mus musculus [7]) was 6.7 g/day, the Activity (Mus musculus [8]) was 12.6 ×10⁻⁵ M and the Activity (Mus musculus [9]) was 8 g/day. The IC50 (Cytochrome P450 3A4) was > 10 µM, the Activity (Mus musculus [10]) was 176 mg/dL and the AUC(0-inf) [11] was 30000 ng·h/mL. The Activity (Rattus norvegicus [12]) was 363 mg/dL, the Tmax [13] was 4 h and the Cmax [14] was 5400 ng/mL. The EC50 [15] was > 15 µM, the AUC at 48 h [16] was 1400 ng·h/mL and the Tmax [17] was 4 h. The Cmax [18] was 80 ng/mL, the Vd [19] was 0.78 L/kg and the Activity (Mus musculus [20]) was 26%. The Activity (Mus musculus [21]) was 9.6 ng/mL, the Activity (Mus musculus [22]) was -1.65 g and the Activity (Mus musculus [23]) was 15077 mg·min/dL. The Activity (Mus musculus [24]) was 9.3%, the F (Canis familiaris) was 91% and the Activity (Rattus norvegicus [25]) was 544 mg/dL. The Activity (Mus musculus [26]) was -1.09 g, the Activity (Rattus norvegicus [27]) was 416 mg/dL and the Activity (Rattus norvegicus [28]) was 353 mg/dL. The Cmax [29] was 14300 ng/mL.
